Tests used:
[1] = compound: C1CC(C1)(C(=O)[O-])C(=O)[O-].N.N.[Pt+2] [Carboplatin]; settings: max 10 µM
Outline: (§1)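 Following 24 hours at 37°C and 5% CO2, cancer cell lines in 1536-well plates with 7.5 μl DMEM/F12 or RPMI and 10% FBS were dosed for 72 hours, final DMSO typically being 0.2%. CellTiter-Glo 2.0 luminescence, scaled between blank-well and DMSO-well means, gave the viability readout. Dose responses were fitted to a two-parameter logistic curve with a non-linear mixed effects model, and the single-agent IC50 was derived from this fit.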

[2] = compound: C1CN(CCC1(C(=O)N[C@@H](CCO)C2=CC=C(C=C2)Cl)N)C3=NC=NC4=C3C=CN4 [AZD5363]; settings: max 10 µM
Outline: as §1

[3] = compound: C=CCn1c(=O)c2cnc(Nc3ccc(N4CCN(C)CC4)cc3)nc2n1-c1cccc(C(C)(C)O)n1 [AZD1775]; settings: max 3 µM
Outline: as §1

[4] = compound: CC(=O)Nc1cccc(-n2c(=O)n(C3CC3)c(=O)c3c(Nc4ccc(I)cc4F)n(C)c(=O)c(C)c32)c1 [Trametinib]; settings: max 1 µM
Outline: as §1

[5] = compound: CC(=O)O[C@H]1C(=O)[C@@]2(C)[C@H]([C@H](OC(=O)c3ccccc3)[C@]3(O)C[C@H](OC(=O)[C@H](O)[C@@H](NC(=O)c4ccccc4)c4ccccc4)C(C)=C1C3(C)C)[C@]1(OC(C)=O)CO[C@@H]1C[C@@H]2O [Paclitaxel]; settings: max 3 µM
Outline: as §1

[6] = compound: CC(=O)c1c(C)c2cnc(Nc3ccc(N4CCNCC4)cn3)nc2n(C2CCCC2)c1=O [Palbociclib]; settings: max 10 µM
Outline: as §1

[7] = compound: CC(C)n1c(=O)n(C)c2cnc3cc(F)c(-c4ccc(OCCCN5CCCCC5)nc4)cc3c21 [AZD1390]; settings: max 0.3 µM
Outline: as §1

[8] = compound: CC1(C)CCC(CN2CCN(c3ccc(C(=O)NS(=O)(=O)c4ccc(NCC5CCOCC5)c([N+](=O)[O-])c4)c(Oc4cnc5[nH]ccc5c4)c3)CC2)=C(c2ccc(Cl)cc2)C1 [Venetoclax]; settings: max 1 µM
Outline: as §1

[9] = compound: CC1=C(C(=CC=C1)Cl)NC(=O)C2=CN=C(S2)NC3=CC(=NC(=N3)C)N4CCN(CC4)CCO [Dasatinib]; settings: max 2 µM
Outline: as §1

[10] = compound: CC1=CN2[C@@H](C1)C=NC3=CC(=C(C=C3C2=O)OC)OCCCCCOC4=C(C=C5C(=C4)N=C[C@@H]6CC(=CN6C5=O)C)OC [SG3199]; settings: max 0.001 µM
Outline: as §1

[11] = compound: CCN(CCO)CCCOc1ccc2c(Nc3cc(CC(=O)Nc4cccc(F)c4)[nH]n3)ncnc2c1 [AZD2811]; settings: max 1 µM
Outline: as §1

[12] = compound: CCc1c2c(nc3ccc(O)cc13)-c1cc3c(c(=O)n1C2)COC(=O)[C@]3(O)CC [SN-38]; settings: max 0.3 µM
Outline: as §1

[13] = compound: CN(C)CCCOc1ccc(-c2ccc3ncc4c(c3c2)n(C2CCOCC2)c(=O)n4C)cn1 [AZD0156]; settings: max 3 µM
Outline: as §1

[14] = compound: CN(CC[C@H](CSC1=CC=CC=C1)NC2=C(C=C(C=C2)S(=O)(=O)NC(=O)C3=CC=C(C=C3)N4CCC(CC4)[C@H](C5=CC=CC=C5C6=CC=C(C=C6)Cl)O)S(=O)(=O)C(F)(F)F)CCO [AZD4320]; settings: max 1 µM
Outline: as §1

[15] = compound: COc1cc(Nc2ncc3c(n2)-c2ccc(Cl)cc2C(c2c(F)cccc2OC)=NC3)ccc1C(=O)O [Alisertib]; settings: max 10 µM
Outline: as §1

[16] = compound: COc1cc([C@@H]2c3cc4c(cc3[C@@H](O[C@@H]3O[C@@H]5CO[C@@H](C)O[C@H]5[C@H](O)[C@H]3O)[C@H]3COC(=O)[C@H]23)OCO4)cc(OC)c1O [Etoposide]; settings: max 10 µM
Outline: as §1

[17] = compound: COc1cc2ncnc(Nc3ccc(F)c(Cl)c3)c2cc1OCCCN1CCOCC1 [Gefitinib]; settings: max 10 µM
Outline: as §1

[18] = compound: COc1cccc(OCCCN)c1-c1cc(Nc2cnc(C#N)cn2)n[nH]1 [Prexasertib]; settings: max 1 µM
Outline: as §1

[19] = compound: COc1cccc2c1C(=O)c1c(O)c3c(c(O)c1C2=O)C[C@@](O)(C(=O)CO)C[C@@H]3O[C@H]1C[C@H](N)[C@H](O)[C@H](C)O1 [Doxorubicin]; settings: max 1 µM
Outline: as §1

[20] = compound: COc1nnc2ccc(N3CCC(c4ccc(OCCN5CCN(C)C(=O)[C@H]5C)cc4)CC3)nn12 [AZD5153]; settings: max 1 µM
Outline: as §1

[21] = compound: CS(=O)(=O)CCNCc1ccc(-c2ccc3ncnc(Nc4ccc(OCc5cccc(F)c5)c(Cl)c4)c3c2)o1 [Lapatinib]; settings: max 10 µM
Outline: as §1

[22] = compound: C[C@@H](Nc1cc(F)cc(F)c1)c1cc(C(=O)N(C)C)cc2c(=O)cc(N3CCOCC3)oc12 [AZD8186]; settings: max 10 µM
Outline: as §1

[23] = compound: C[C@@H](Oc1cc(-c2cnn(C3CCNCC3)c2)cnc1N)c1c(Cl)ccc(F)c1Cl [Crizotinib]; settings: max 10 µM
Outline: as §1

[24] = compound: C[C@@H](c1ccc2nccn2c1)n1nnc2ncc(-c3cnn(C)c3)nc21 [Savolitinib]; settings: max 1 µM
Outline: as §1

[25] = compound: C[C@@H]1COCCN1C2=NC(=NC(=C2)C3(CC3)[S@](=N)(=O)C)C4=C5C=CNC5=NC=C4 [AZD6738]; settings: max 10 µM
Outline: as §1

[26] = compound: Cc1c2c(nn1C)CSCc1cc(n(C)n1)CSc1cc(c3ccccc3c1)OCCCc1c(C(=O)O)n(C)c3c-2c(Cl)ccc13 [AZD5991]; settings: max 1 µM
Outline: as §1

[27] = compound: Cc1cc2ncnn2cc1Nc1ncc2c(n1)n(C1CCOCC1)c(=O)n2C [AZD7648]; settings: max 10 µM
Outline: as §1

[28] = compound: Cc1nc(-c2cn3c(n2)-c2ccc(-c4cnn(C(C)(C)C(N)=O)c4)cc2OCC3)n(C(C)C)n1 [Taselisib]; settings: max 10 µM
Outline: as §1

[29] = compound: Cn1cnc2c(F)c(Nc3ccc(Br)cc3Cl)c(C(=O)NOCCO)cc21 [Selumetinib]; settings: max 10 µM
Outline: as §1

[30] = compound: N#Cc1cnc(Nc2cc(NC[C@H]3CNCCO3)c(C(F)(F)F)cn2)cn1 [SRA737]; settings: max 10 µM
Outline: as §1

[31] = compound: NC1(c2ccc(-c3nc4ccn5c(=O)[nH]nc5c4cc3-c3ccccc3)cc2)CCC1 [MK-2206]; settings: max 10 µM
Outline: as §1

[32] = compound: Nc1ccn([C@@H]2O[C@H](CO)[C@@H](O)C2(F)F)c(=O)n1 [Gemcitabine]; settings: max 0.3 µM
Outline: as §1

[33] = compound: O=C(Nc1ccc2[nH]nc(-c3ccncc3)c2c1)[C@@H]1CCN(CC(=O)N2CCN(c3ccc(-c4ncccn4)cc3)CC2)C1; settings: max 5 µM
Outline: as §1

[34] = compound: O=C(c1cc(Cc2n[nH]c(=O)c3ccccc23)ccc1F)N1CCN(C(=O)C2CC2)CC1 [Olaparib]; settings: max 10 µM
Outline: as §1

[35] = compound: O=c1[nH]cc(F)c(=O)[nH]1 [5-Fluorouracil]; settings: max 20 µM
Outline: as §1

Cell Line	IC50, cell viability 72 h [1]	IC50, cell viability 72 h [2]	IC50, cell viability 72 h [3]	IC50, cell viability 72 h [4]	IC50, cell viability 72 h [5]	IC50, cell viability 72 h [6]	IC50, cell viability 72 h [7]	IC50, cell viability 72 h [8]	IC50, cell viability 72 h [9]	IC50, cell viability 72 h [10]	IC50, cell viability 72 h [11]	IC50, cell viability 72 h [12]	IC50, cell viability 72 h [13]	IC50, cell viability 72 h [14]	IC50, cell viability 72 h [15]	IC50, cell viability 72 h [16]	IC50, cell viability 72 h [17]	IC50, cell viability 72 h [18]	IC50, cell viability 72 h [19]	IC50, cell viability 72 h [20]	IC50, cell viability 72 h [21]	IC50, cell viability 72 h [22]	IC50, cell viability 72 h [23]	IC50, cell viability 72 h [24]	IC50, cell viability 72 h [25]	IC50, cell viability 72 h [26]	IC50, cell viability 72 h [27]	IC50, cell viability 72 h [28]	IC50, cell viability 72 h [29]	IC50, cell viability 72 h [30]	IC50, cell viability 72 h [31]	IC50, cell viability 72 h [32]	IC50, cell viability 72 h [33]	IC50, cell viability 72 h [34]	IC50, cell viability 72 h [35]
NAMALWA (Burkitt's Lymphoma)	> 10 µM	9.01 µM	0.3 µM	> 1 µM	0.00484 µM	9.88 µM	> 0.3 µM	> 1 µM	> 2 µM	> 0.001 µM	> 1 µM	0.00263 µM	> 3 µM	> 1 µM	0.689 µM	0.272 µM	> 10 µM	0.0105 µM	0.0414 µM	0.0431 µM	> 10 µM	7.52 µM	2.32 µM	> 1 µM	1.14 µM	0.0611 µM	> 10 µM	2.02 µM	> 10 µM	1.67 µM	8.2 µM	0.00604 µM	> 5 µM	> 10 µM	14.5 µM
SCC-4 (Oral Cavity Carcinoma)	> 10 µM	> 10 µM	> 3 µM	> 1 µM	0.0115 µM	> 10 µM	> 0.3 µM	> 1 µM	> 2 µM	> 0.001 µM	> 1 µM	0.053 µM	> 3 µM	> 1 µM	9.22 µM	> 10 µM	> 10 µM	0.154 µM	> 1 µM	> 1 µM	> 10 µM	> 10 µM	> 10 µM	> 1 µM	9.01 µM	> 1 µM	> 10 µM	1.94 µM	> 10 µM	> 10 µM	> 10 µM	0.272 µM	> 5 µM	> 10 µM	> 20 µM
NCI-H226 (Mesothelioma)	> 10 µM	> 10 µM	> 3 µM	> 1 µM	> 3 µM	> 10 µM	> 0.3 µM	> 1 µM	> 2 µM	> 0.001 µM	> 1 µM	> 0.3 µM	> 3 µM	> 1 µM	> 10 µM	> 10 µM	> 10 µM	> 1 µM	> 1 µM	> 1 µM	> 10 µM	> 10 µM	> 10 µM	> 1 µM	> 10 µM	> 1 µM	> 10 µM	> 10 µM	> 10 µM	> 10 µM	> 10 µM	> 0.3 µM	> 5 µM	> 10 µM	> 20 µM
ZR-75-30 (Breast Carcinoma)	> 10 µM	> 10 µM	> 3 µM	> 1 µM	> 3 µM	> 10 µM	> 0.3 µM	> 1 µM	> 2 µM	> 0.001 µM	> 1 µM	> 0.3 µM	> 3 µM	> 1 µM	> 10 µM	> 10 µM	> 10 µM	> 1 µM	> 1 µM	> 1 µM	0.869 µM	> 10 µM	> 10 µM	> 1 µM	> 10 µM	> 1 µM	> 10 µM	9.52 µM	> 10 µM	> 10 µM	> 10 µM	> 0.3 µM	> 5 µM	> 10 µM	> 20 µM
IA-LM (Non-Small Cell Lung Carcinoma)	> 10 µM	> 10 µM	> 3 µM	> 1 µM	> 3 µM	> 10 µM	> 0.3 µM	> 1 µM	> 2 µM	> 0.001 µM	> 1 µM	0.05 µM	> 3 µM	> 1 µM	> 10 µM	> 10 µM	> 10 µM	> 1 µM	> 1 µM	> 1 µM	> 10 µM	> 10 µM	> 10 µM	> 1 µM	> 10 µM	> 1 µM	> 10 µM	> 10 µM	> 10 µM	> 10 µM	> 10 µM	> 0.3 µM	> 5 µM	> 10 µM	> 20 µM

— the supplement of paper PMC11061612
